Test results reported in BindingDB's records for doi:10.1021/jm00163a035 (Sri International, 1990).

Molecular target: T1, Dihydrofolate reductase (Homo sapiens, UniProt P00374)
T1 sequence (P00374 whole entry): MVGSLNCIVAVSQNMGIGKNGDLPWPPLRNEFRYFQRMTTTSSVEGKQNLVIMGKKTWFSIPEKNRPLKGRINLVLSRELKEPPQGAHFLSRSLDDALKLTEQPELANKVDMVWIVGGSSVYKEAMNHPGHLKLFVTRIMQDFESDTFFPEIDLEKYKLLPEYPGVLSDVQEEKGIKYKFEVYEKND
Test: ChEBML_54117
Description: Inhibitory activity towards dihydrofolate reductase derived from human manca leukemia cells

IC50: 70 nM
Compound: CCC(Cc1ccc(C(=O)NC(CCC(=O)O)C(=O)O)cc1)c1cnc2nc(N)nc(N)c2n1 (stereo unspecified)
